Assays:
[1] = target: PI3 Kinase α (Homo sapiens, UniProt P42336); assay: Fluorescence polarization assay for PI3K (PI3 Kinase α); format: biochemical; conditions: diC8-PI(4,5)P2 substrate, 25 μM ATP, one hour at 25° C.
[2] = target: PI3 Kinase γ (Homo sapiens, UniProt P48736); assay: Fluorescence polarization assay for PI3K (PI3 Kinase γ); format: biochemical; conditions: diC8-PI(4,5)P2 substrate, 25 μM ATP, one hour at 25° C.
Sequence of PI3 Kinase γ (P48736 whole entry): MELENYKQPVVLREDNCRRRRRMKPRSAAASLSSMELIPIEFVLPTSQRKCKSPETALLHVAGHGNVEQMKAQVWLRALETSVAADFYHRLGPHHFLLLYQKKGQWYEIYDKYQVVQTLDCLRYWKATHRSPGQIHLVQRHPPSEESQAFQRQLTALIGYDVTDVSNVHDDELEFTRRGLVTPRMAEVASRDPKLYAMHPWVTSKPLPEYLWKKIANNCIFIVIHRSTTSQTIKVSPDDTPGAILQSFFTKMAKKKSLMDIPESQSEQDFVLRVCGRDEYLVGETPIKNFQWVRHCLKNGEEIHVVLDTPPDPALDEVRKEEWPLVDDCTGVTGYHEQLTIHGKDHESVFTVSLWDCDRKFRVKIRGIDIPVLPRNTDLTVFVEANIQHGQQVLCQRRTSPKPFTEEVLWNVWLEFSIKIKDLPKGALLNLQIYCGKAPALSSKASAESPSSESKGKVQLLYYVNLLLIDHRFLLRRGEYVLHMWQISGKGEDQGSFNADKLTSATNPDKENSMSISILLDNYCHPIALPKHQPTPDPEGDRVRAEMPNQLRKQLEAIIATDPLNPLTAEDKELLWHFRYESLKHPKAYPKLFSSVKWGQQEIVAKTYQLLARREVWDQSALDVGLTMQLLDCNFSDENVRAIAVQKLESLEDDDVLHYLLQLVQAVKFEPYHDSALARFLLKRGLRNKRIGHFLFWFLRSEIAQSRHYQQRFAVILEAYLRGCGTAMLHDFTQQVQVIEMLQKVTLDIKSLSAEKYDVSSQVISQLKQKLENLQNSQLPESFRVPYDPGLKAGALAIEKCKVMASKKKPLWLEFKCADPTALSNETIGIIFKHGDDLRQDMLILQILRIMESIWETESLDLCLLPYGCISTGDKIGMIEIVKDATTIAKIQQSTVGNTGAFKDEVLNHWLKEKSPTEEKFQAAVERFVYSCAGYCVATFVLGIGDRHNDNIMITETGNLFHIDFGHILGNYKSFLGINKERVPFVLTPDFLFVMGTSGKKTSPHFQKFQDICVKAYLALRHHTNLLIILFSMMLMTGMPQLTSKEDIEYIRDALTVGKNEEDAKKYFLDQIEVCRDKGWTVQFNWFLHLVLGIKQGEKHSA

Sequence of PI3 Kinase α (P42336 whole entry): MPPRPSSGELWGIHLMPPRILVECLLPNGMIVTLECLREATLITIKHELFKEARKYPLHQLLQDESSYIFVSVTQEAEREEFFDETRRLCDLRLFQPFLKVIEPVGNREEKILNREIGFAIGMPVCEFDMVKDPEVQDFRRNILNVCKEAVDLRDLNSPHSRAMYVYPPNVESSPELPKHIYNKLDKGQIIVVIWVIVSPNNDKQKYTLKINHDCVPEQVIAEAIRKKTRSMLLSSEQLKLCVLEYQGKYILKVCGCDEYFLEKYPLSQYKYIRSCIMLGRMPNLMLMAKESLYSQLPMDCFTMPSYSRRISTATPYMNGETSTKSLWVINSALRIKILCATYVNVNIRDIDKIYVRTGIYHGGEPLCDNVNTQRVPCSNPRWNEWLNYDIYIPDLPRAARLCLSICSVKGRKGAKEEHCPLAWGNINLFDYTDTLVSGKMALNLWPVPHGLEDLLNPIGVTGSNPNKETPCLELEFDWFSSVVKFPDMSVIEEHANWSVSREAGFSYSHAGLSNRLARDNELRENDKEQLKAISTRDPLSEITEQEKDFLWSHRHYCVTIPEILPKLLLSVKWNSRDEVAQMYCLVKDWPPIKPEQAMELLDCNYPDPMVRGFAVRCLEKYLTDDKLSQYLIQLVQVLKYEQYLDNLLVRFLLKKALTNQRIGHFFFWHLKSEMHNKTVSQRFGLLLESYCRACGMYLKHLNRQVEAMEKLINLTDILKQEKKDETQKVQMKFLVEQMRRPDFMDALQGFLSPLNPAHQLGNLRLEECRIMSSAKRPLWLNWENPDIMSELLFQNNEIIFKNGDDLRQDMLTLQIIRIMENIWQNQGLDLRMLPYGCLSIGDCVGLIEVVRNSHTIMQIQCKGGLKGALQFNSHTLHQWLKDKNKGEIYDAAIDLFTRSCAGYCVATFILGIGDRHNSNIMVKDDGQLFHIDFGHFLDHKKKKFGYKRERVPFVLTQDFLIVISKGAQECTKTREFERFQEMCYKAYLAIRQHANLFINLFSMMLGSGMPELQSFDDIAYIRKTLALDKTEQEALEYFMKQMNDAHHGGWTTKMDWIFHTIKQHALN
Sequence of PI3 Kinase α (P27986 whole entry partner): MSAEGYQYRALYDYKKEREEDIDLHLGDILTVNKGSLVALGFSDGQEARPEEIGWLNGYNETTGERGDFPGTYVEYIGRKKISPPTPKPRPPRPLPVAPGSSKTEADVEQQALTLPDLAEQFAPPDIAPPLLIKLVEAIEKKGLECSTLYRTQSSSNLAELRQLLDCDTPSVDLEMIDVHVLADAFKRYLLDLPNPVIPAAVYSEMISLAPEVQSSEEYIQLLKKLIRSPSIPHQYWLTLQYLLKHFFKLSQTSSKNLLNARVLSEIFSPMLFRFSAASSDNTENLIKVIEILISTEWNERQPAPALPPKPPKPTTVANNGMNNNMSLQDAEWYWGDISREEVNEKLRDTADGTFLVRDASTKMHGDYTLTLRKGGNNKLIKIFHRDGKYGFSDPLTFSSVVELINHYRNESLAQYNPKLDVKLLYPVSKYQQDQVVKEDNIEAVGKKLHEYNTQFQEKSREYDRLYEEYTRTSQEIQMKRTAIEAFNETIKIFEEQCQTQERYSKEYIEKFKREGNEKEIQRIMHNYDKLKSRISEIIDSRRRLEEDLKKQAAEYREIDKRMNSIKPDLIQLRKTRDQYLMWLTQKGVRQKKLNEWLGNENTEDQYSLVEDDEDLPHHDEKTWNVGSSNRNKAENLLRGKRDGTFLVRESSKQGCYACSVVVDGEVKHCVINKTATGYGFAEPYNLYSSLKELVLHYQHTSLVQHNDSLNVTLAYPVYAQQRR

| SMILES | IC50 [1] [µM] | IC50 [2] [µM] |
| --- | --- | --- |
| Oc1cccc(-c2nc(N3CCOCC3)c3nnn(C4CN(Cc5ccccc5)C4)c3n2)c1 [Example 127, 3-[3-(1-benzylazetidin-3-yl)-7-morpholin-4-yl-3H-[1,2,3]triazolo[4,5-d]pyrimidin-5-yl]phenol] | 0.134 | 1.24 |
| Oc1cccc(-c2nc(N3CCOCC3)c3nnn(C4CN(Cc5ccc(F)nc5)C4)c3n2)c1 [Example 128, 3-(3-{1-[(6-fluoropyridin-3-yl)methyl]azetidin-3-yl}-7-morpholin-4-yl-3H-[1,2,3]triazolo[4,5-d]pyrimidin-5-yl)phenol] | 0.164 | 1.1 |
| CC(C)(C)OC(=O)N1CC(n2nnc3c(N4CCOCC4)nc(-c4ccc(NC(=O)Nc5ccncc5)cc4)nc32)C1 [Example 129, tert-butyl 3-(7-morpholin-4-yl-5-{4-[(pyridin-4-ylcarbamoyl)amino]phenyl}-3H-[1,2,3]triazolo[4,5-d]pyrimidin-3-yl)azetidine-1-carboxylate] | 0.03 | 0.156 |
| CC(C)(C)OC(=O)N1CC(n2nnc3c(N4CCOCC4)nc(-c4ccc(NC(=O)Nc5cccnc5)cc4)nc32)C1 [Example 130, tert-butyl 3-(7-morpholin-4-yl-5-{4-[(pyridin-3-ylcarbamoyl)amino]phenyl}-3H-[1,2,3]triazolo[4,5-d]pyrimidin-3-yl)azetidine-1-carboxylate] | 0.034 | 0.165 |
| CC(C)(C)OC(=O)N1CC(n2nnc3c(N4CCOCC4)nc(-c4ccc(NC(=O)Nc5cccs5)cc4)nc32)C1 [Example 132, tert-butyl 3-(7-morpholin-4-yl-5-{4-[(2-thienylcarbamoyl)amino]phenyl}-3H-[1,2,3]triazolo[4,5-d]pyrimidin-3-yl)azetidine-1-carboxylate] | 0.021 | 1.43 |
| Nc1ccc(-c2nc(N3CCOCC3)c3nnn(CC(F)(F)F)c3n2)cc1 [Example 133, 4-[7-morpholin-4-yl-3-(2,2,2-trifluoroethyl)-3H-[1,2,3]triazolo[4,5-d]pyrimidin-5-yl]aniline] | 0.37 | 1.38 |
| O=C(Nc1ccncc1)Nc1ccc(-c2nc(N3CCOCC3)c3nnn(CC(F)(F)F)c3n2)cc1 [Example 134, 1-{4-[7-morpholin-4-yl-3-(2,2,2-trifluoroethyl)-3H-[1,2,3]triazolo[4,5-d]pyrimidin-5-yl]phenyl}-3-pyridin-4-ylurea] | 0.002 | 0.0255 |
| O=C(Nc1ccc(-c2nc(N3CCOCC3)c3nnn(CC(F)(F)F)c3n2)cc1)Nc1cccnc1 [Example 135, 1-{4-[7-morpholin-4-yl-3-(2,2,2-trifluoroethyl)-3H-[1,2,3]triazolo[4,5-d]pyrimidin-5-yl]phenyl}-3-pyridin-3-ylurea] | 0.0095 | 0.03 |
| O=C(Nc1ccc(-c2nc(N3CCOCC3)c3nnn(CC(F)(F)F)c3n2)cc1)Nc1cncnc1 [Example 136, 1-{4-[7-morpholin-4-yl-3-(2,2,2-trifluoroethyl)-3H-[1,2,3]triazolo[4,5-d]pyrimidin-5-yl]phenyl}-3-pyrimidin-5-ylurea] | 0.038 | 0.088 |
| CN(C)c1ccc(NC(=O)Nc2ccc(-c3nc(N4CCOCC4)c4nnn(CC(F)(F)F)c4n3)cc2)cc1 [Example 137, 1-[4-(dimethylamino)phenyl]-3-{4-[7-morpholin-4-yl-3-(2,2,2-trifluoroethyl)-3H-[1,2,3]triazolo[4,5-d]pyrimidin-5-yl]phenyl}urea] | 0.013 | 0.0305 |
| O=C(Nc1ccc(CCO)cc1)Nc1ccc(-c2nc(N3CCOCC3)c3nnn(CC(F)(F)F)c3n2)cc1 [Example 138, 1-[4-(2-hydroxyethyl)phenyl]-3-{4-[7-morpholin-4-yl-3-(2,2,2-trifluoroethyl)-3H-[1,2,3]triazolo[4,5-d]pyrimidin-5-yl]phenyl}urea] | 0.003 | 0.0125 |
| O=C(Nc1ccc(-c2nc(N3CCOCC3)c3nnn(CC(F)(F)F)c3n2)cc1)Nc1cccs1 [Example 141, 1-{4-[7-morpholin-4-yl-3-(2,2,2-trifluoroethyl)-3H-[1,2,3]triazolo[4,5-d]pyrimidin-5-yl]phenyl}-3-(2-thienyl)urea] | 0.0065 | 0.03 |
| O=C(Nc1ccc(-c2nc(N3CCOCC3)c3nnn(CC(F)(F)F)c3n2)cc1)Nc1ccsc1 [Example 142, 1-{4-[7-morpholin-4-yl-3-(2,2,2-trifluoroethyl)-3H-[1,2,3]triazolo[4,5-d]pyrimidin-5-yl]phenyl}-3-(3-thienyl)urea] | 0.004 | 0.02 |
| CC(C)(C)OC(=O)N1CCC(n2nnc3c(N4CCOCC4)nc(-c4cccc(O)c4)nc32)CC1 [Example 143, tert-butyl 4-[5-(3-hydroxyphenyl)-7-morpholin-4-yl-3H-[1,2,3]triazolo[4,5-d]pyrimidin-3-yl]piperidine-1-carboxylate] | 0.189 | 3.79 |
| CN(C)CCCOc1ccc(CN2CCC(n3nnc4c(N5CCOCC5)nc(-c5cccc(O)c5)nc43)CC2)cc1 [Example 146, 3-[3-(1-{4-[3-(dimethylamino)propoxy]benzyl}piperidin-4-yl)-7-morpholin-4-yl-3H-[1,2,3]triazolo[4,5-d]pyrimidin-5-yl]phenol] | 0.013 | 0.28 |
| Oc1cccc(-c2nc(N3CCOCC3)c3nnn(C4CCN(Cc5ccc(F)cc5)CC4)c3n2)c1 [Example 147, 3-{3-[1-(4-fluorobenzyl)piperidin-4-yl]-7-morpholin-4-yl-3H-[1,2,3]triazolo[4,5-d]pyrimidin-5-yl}phenol] | 0.059 | 0.735 |
| CC(C)(C)OC(=O)N1CCC(n2nnc3c(N4CCOCC4)nc(-c4cnc(N)nc4)nc32)CC1 [Example 148, tert-butyl 4-[5-(2-aminopyrimidin-5-yl)-7-morpholin-4-yl-3H-[1,2,3]triazolo[4,5-d]pyrimidin-3-yl]piperidine-1-carboxylate] | 0.111 | 1.4 |
| Oc1cccc(-c2nc(N3CCOCC3)c3nnn(C4CCN(Cc5ccccn5)CC4)c3n2)c1 [Example 149, 3-{7-morpholin-4-yl-3-[1-(pyridin-2-ylmethyl)piperidin-4-yl]-3H-[1,2,3]triazolo[4,5-d]pyrimidin-5-yl}phenol] | 0.067 | 0.735 |

Results, then the molecule that gave them:

| IC50 [1] [µM] | IC50 [2] [µM] | SMILES |
| --- | --- | --- |
| 0.318 | 1.5 | CN(CCNC(=O)Nc1ccc(-c2nc(N3CCOCC3)c3nnn(CC(F)(F)F)c3n2)cc1)C(=O)OC(C)(C)C [Example 139, tert-butyl methyl{2-[({4-[7-morpholin-4-yl-3-(2,2,2-trifluoroethyl)-3H-[1,2,3]triazolo[4,5-d]pyrimidin-5-yl]phenyl}carbamoyl)amino]ethyl}carbamate] |
| 0.0265 | 0.119 | CNCCNC(=O)Nc1ccc(-c2nc(N3CCOCC3)c3nnn(CC(F)(F)F)c3n2)cc1 [Example 140, 1-[2-(methylamino)ethyl]-3-{4-[7-morpholin-4-yl-3-(2,2,2-trifluoroethyl)-3H-[1,2,3]triazolo[4,5-d]pyrimidin-5-yl]phenyl}urea] |
| 0.0815 | 0.406 | Oc1cccc(-c2nc(N3CCOCC3)c3nnn(C4CCNCC4)c3n2)c1 [Example 144, 3-(7-morpholin-4-yl-3-piperidin-4-yl-3H-[1,2,3]triazolo[4,5-d]pyrimidin-5-yl)phenol] |
| 0.0215 | 0.223 | CC(C)(C)OC(=O)N1CCC(n2nnc3c(N4CCOCC4)nc(-c4ccc(NC(=O)Nc5cccnc5)cc4)nc32)CC1 [Example 150, tert-butyl 4-(7-morpholin-4-yl-5-{4-[(pyridin-3-ylcarbamoyl)amino]phenyl}-3H-[1,2,3]triazolo[4,5-d]pyrimidin-3-yl)piperidine-1-carboxylate] |
| 0.295 | 0.748 | CN(C)CCNC(=O)Nc1ccc(-c2nc(N3CCOCC3)c3nnn(C4CCN(C(=O)OC(C)(C)C)CC4)c3n2)cc1 [Example 151, tert-butyl 4-(5-(4-(3-(2-(dimethylamino)ethyl)ureido)phenyl)-7-morpholino-3H-[1,2,3]triazolo[4,5-d]pyrimidin-3-yl)piperidine-1-carboxylate] |
| 0.104 | 0.392 | CN(C)CCNC(=O)Nc1ccc(-c2nc(N3CCOCC3)c3nnn(C4CCNCC4)c3n2)cc1 [Example 152, 1-(2-(dimethylamino)ethyl)-3-(4-(7-morpholino-3-(piperidin-4-yl)-3H-[1,2,3]triazolo[4,5-d]pyrimidin-5-yl)phenyl)urea] |
| 0.146 | 0.176 | CN(C)CCNC(=O)Nc1ccc(-c2nc(N3CCOCC3)c3nnn(C4CCN(Cc5ccc(F)cc5)CC4)c3n2)cc1 [Example 153, 1-(2-(dimethylamino)ethyl)-3-(4-(3-(1-(4-fluorobenzyl)piperidin-4-yl)-7-morpholino-3H-[1,2,3]triazolo[4,5-d]pyrimidin-5-yl)phenyl)urea] |
| 0.206 | 0.058 | CN(C)CCNC(=O)Nc1ccc(-c2nc(N3CCOCC3)c3nnn(C4CCN(Cc5cccnc5)CC4)c3n2)cc1 [Example 154, 1-(2-(dimethylamino)ethyl)-3-(4-(7-morpholino-3-(1-(pyridin-3-ylmethyl)piperidin-4-yl)-3H-[1,2,3]triazolo[4,5-d]pyrimidin-5-yl)phenyl)urea] |
| 0.048 | 0.176 | CN(C)CCNC(=O)Nc1ccc(-c2nc(N3CCOCC3)c3nnn(C4CCN(Cc5ccc(Br)nc5)CC4)c3n2)cc1 [Example 155, 1-(4-(3-(1-((6-bromopyridin-3-yl)methyl)piperidin-4-yl)-7-morpholino-3H-[1,2,3]triazolo[4,5-d]pyrimidin-5-yl)phenyl)-3-(2-(dimethylamino)ethyl)urea] |
| 0.17 | 0.557 | CN(C)CCNC(=O)Nc1ccc(-c2nc(N3CCOCC3)c3nnn(C4CCN(Cc5ccc(Cl)cc5F)CC4)c3n2)cc1 [Example 156, 1-(4-(3-(1-(4-chloro-2-fluorobenzyl)piperidin-4-yl)-7-morpholino-3H-[1,2,3]triazolo[4,5-d]pyrimidin-5-yl)phenyl)-3-(2-(dimethylamino)ethyl)urea] |

From patent US20090181963A1, “3H-[1,2,3]TRIAZOLO[4,5-D]PYRIMIDINE COMPOUNDS, THEIR USE AS mTOR KINASE AND PI3 KINASE INHIBITORS, AND THEIR [sequence]” (Wyeth, priority 2008, published 2009)
